According to ChEMBL document CHEMBL1201862, “PubChem BioAssay data set” (2004):
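Values below derive from 48-hour exposures of cells grown in 96-well plates, with endpoints linearly interpolated between the two concentrations bracketing the appropriate inhibition level. GI50: concentration for 50% inhibition of growth.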 Activity calls are given as the source filed them. Rule as the data show it: active = GI50 up to about 1.1 µM and inactive = higher.

Tests used:
Test in all cases: growth of human tumour cells (NCI), 48 h
786-0 = tested on: 786-0
A498 = tested on: A498
ACHN = tested on: ACHN
CCRF-CEM = tested on: CCRF-CEM
HL-60 = tested on: HL-60
HOP-62 = tested on: HOP-62
IGROV-1 = tested on: IGROV-1
NCI-H226 = tested on: NCI-H226
NCI-H460 = tested on: NCI-H460
NCI/ADR-RES = tested on: NCI/ADR-RES
OVCAR-3 = tested on: OVCAR-3
RXF 393 = tested on: RXF 393
SF-268 = tested on: SF-268
SF-539 = tested on: SF-539
SK-MEL-28 = tested on: SK-MEL-28
SK-MEL-5 = tested on: SK-MEL-5
SNB-75 = tested on: SNB-75
TK-10 = tested on: TK-10
HCC 2998 = tested on: HCC 2998
HOP-92 = tested on: HOP-92

| Compound | GI50 (786-0) | GI50 (A498) | GI50 (ACHN) | GI50 (CCRF-CEM) | GI50 (HL-60) | GI50 (HOP-62) | GI50 (IGROV-1) | GI50 (NCI-H226) | GI50 (NCI-H460) | GI50 (NCI/ADR-RES) | GI50 (OVCAR-3) | GI50 (RXF 393) | GI50 (SF-268) | GI50 (SF-539) | GI50 (SK-MEL-28) | GI50 (SK-MEL-5) | GI50 (SNB-75) | GI50 (TK-10) | GI50 (HCC 2998) | GI50 (HOP-92) |
| --- | --- | --- | --- | --- | --- | --- | --- | --- | --- | --- | --- | --- | --- | --- | --- | --- | --- | --- | --- | --- |
| CCOC(=O)O/C(=C\c1ccc(OC)cc1)c1c(OC(=O)OCC)n(C(=O)OCC)c2ccccc12 | 39.5 µM (inactive) | 14.2 µM (inactive) | 29.1 µM (inactive) | 21.8 µM (inactive) | > 100 µM (inactive) | 19.9 µM (inactive) | 35.7 µM (inactive) | 32.9 µM (inactive) | 15.1 µM (inactive) | 43.9 µM (inactive) | 59.4 µM (inactive) | 19.8 µM (inactive) | 47.1 µM (inactive) | 34.8 µM (inactive) | 19.6 µM (inactive) | 39 µM (inactive) | 25.1 µM (inactive) | 31.3 µM (inactive) | – | – |
| Cn1c2ccccc2n2c(=O)c3cc([N+](=O)[O-])ccc3c(C#N)c12 | 22.3 µM (inactive) | – | 75.3 µM (inactive) | > 100 µM (inactive) | > 100 µM (inactive) | 27.5 µM (inactive) | > 100 µM (inactive) | > 100 µM (inactive) | > 100 µM (inactive) | > 100 µM (inactive) | > 100 µM (inactive) | > 100 µM (inactive) | > 100 µM (inactive) | 50.4 µM (inactive) | > 100 µM (inactive) | > 100 µM (inactive) | 56.2 µM (inactive) | > 100 µM (inactive) | > 100 µM (inactive) | – |
| O=P(O)(Cc1ccccc1)c1ccccc1-c1ccccc1 | > 100 µM (inactive) | – | > 100 µM (inactive) | > 100 µM (inactive) | > 100 µM (inactive) | > 100 µM (inactive) | > 100 µM (inactive) | > 100 µM (inactive) | 62.7 µM (inactive) | > 100 µM (inactive) | – | 54.6 µM (inactive) | > 100 µM (inactive) | > 100 µM (inactive) | > 100 µM (inactive) | > 100 µM (inactive) | > 100 µM (inactive) | > 100 µM (inactive) | > 100 µM (inactive) | – |
| CC(C)(C)c1ccc(OCCOCCOc2ccc(C(C)(C)C)cc2S(N)(=O)=O)c(S(N)(=O)=O)c1 | > 100 µM (inactive) | 20.3 µM (inactive) | 29.1 µM (inactive) | > 100 µM (inactive) | 14.5 µM (inactive) | > 100 µM (inactive) | > 100 µM (inactive) | 40.7 µM (inactive) | 34.9 µM (inactive) | – | > 100 µM (inactive) | 20.2 µM (inactive) | 97.3 µM (inactive) | > 100 µM (inactive) | 94.6 µM (inactive) | 8.13 µM (inactive) | > 100 µM (inactive) | > 100 µM (inactive) | > 100 µM (inactive) | 24.6 µM (inactive) |
| [N-]=[N+]=NC[C@H]1OCO[C@H](CN=[N+]=[N-])[C@H]2OCCOCCOc3ccccc3OCCOCCO[C@@H]21 | > 100 µM (inactive) | – | – | > 100 µM (inactive) | > 100 µM (inactive) | > 100 µM (inactive) | > 100 µM (inactive) | > 100 µM (inactive) | > 100 µM (inactive) | > 100 µM (inactive) | > 100 µM (inactive) | > 100 µM (inactive) | > 100 µM (inactive) | > 100 µM (inactive) | > 100 µM (inactive) | > 100 µM (inactive) | 76.4 µM (inactive) | > 100 µM (inactive) | > 100 µM (inactive) | – |
| C=C1CC2CCCC12C=O (centres undefined) | > 10 µM (inactive) | – | > 10 µM (inactive) | > 10 µM (inactive) | > 10 µM (inactive) | > 10 µM (inactive) | > 10 µM (inactive) | – | – | > 10 µM (inactive) | > 10 µM (inactive) | – | > 10 µM (inactive) | > 10 µM (inactive) | > 10 µM (inactive) | > 10 µM (inactive) | > 10 µM (inactive) | > 10 µM (inactive) | > 10 µM (inactive) | > 10 µM (inactive) |
| COC(OC)(c1ccccc1)C(Br)Br | 23.2 µM (inactive) | > 100 µM (inactive) | > 100 µM (inactive) | 13.6 µM (inactive) | 23.6 µM (inactive) | > 100 µM (inactive) | 50.8 µM (inactive) | > 100 µM (inactive) | > 100 µM (inactive) | 51.8 µM (inactive) | 48.3 µM (inactive) | – | 42.6 µM (inactive) | > 10 µM (inactive) | > 100 µM (inactive) | 67.5 µM (inactive) | 81.1 µM (inactive) | – | > 100 µM (inactive) | – |
| CN(CCNC(=O)c1c[nH]c2c1Cc1ccccc1-2)CCNC(=O)c1c[nH]c2c1Cc1ccccc1-2 | 20.6 µM (inactive) | – | 43.6 µM (inactive) | – | 31 µM (inactive) | 26.4 µM (inactive) | 27.9 µM (inactive) | 24.6 µM (inactive) | 35.1 µM (inactive) | 29.4 µM (inactive) | 21 µM (inactive) | 30.5 µM (inactive) | 32 µM (inactive) | 19.5 µM (inactive) | 48.5 µM (inactive) | 21.8 µM (inactive) | – | 45.9 µM (inactive) | 52.6 µM (inactive) | 22.6 µM (inactive) |
| C=C(Br)CN(C#N)CC(=C)Br | > 100 µM (inactive) | > 100 µM (inactive) | > 100 µM (inactive) | > 100 µM (inactive) | 8.85 µM (inactive) | > 100 µM (inactive) | > 100 µM (inactive) | > 100 µM (inactive) | > 100 µM (inactive) | > 100 µM (inactive) | > 100 µM (inactive) | > 100 µM (inactive) | > 100 µM (inactive) | > 100 µM (inactive) | > 100 µM (inactive) | > 100 µM (inactive) | > 100 µM (inactive) | > 100 µM (inactive) | > 100 µM (inactive) | – |
| CC(C)=CC1CC(=[N+]=[N-])C(=O)C1(C)C (centres undefined) | > 100 µM (inactive) | > 100 µM (inactive) | > 100 µM (inactive) | > 53 µM (inactive) | > 100 µM (inactive) | > 100 µM (inactive) | > 100 µM (inactive) | > 100 µM (inactive) | 99.5 µM (inactive) | – | > 100 µM (inactive) | > 31.6 µM (inactive) | > 100 µM (inactive) | > 100 µM (inactive) | > 100 µM (inactive) | > 100 µM (inactive) | > 46.7 µM (inactive) | > 100 µM (inactive) | > 100 µM (inactive) | > 80.7 µM (inactive) |
| CCC(C)[C@@H](NC1=C(Cl)C(=O)c2c(O)ccc(O)c2C1=O)C(=O)OC (some centres undefined) | 2.43 µM (inactive) | – | 3.91 µM (inactive) | 0.579 µM (active) | 2 µM (inactive) | 3.51 µM (inactive) | 3.95 µM (inactive) | 4.14 µM (inactive) | 2.64 µM (inactive) | 2.52 µM (inactive) | 2.79 µM (inactive) | – | 3.7 µM (inactive) | 4.08 µM (inactive) | – | 2.02 µM (inactive) | 7.26 µM (inactive) | > 10 µM (inactive) | > 10 µM (inactive) | > 10 µM (inactive) |
| CCOC(=O)C1C=C2O[C@@H]3OC4(CCCCC4)O[C@@H]3C2[C@H]2C(=O)C=CC(=O)[C@@]12C(=O)OC (some centres undefined) | 7.21 µM (inactive) | 18.3 µM (inactive) | 18.1 µM (inactive) | 2.84 µM (inactive) | 2.25 µM (inactive) | 20 µM (inactive) | 10.3 µM (inactive) | 20.6 µM (inactive) | 14.6 µM (inactive) | – | 7.89 µM (inactive) | 1.66 µM (inactive) | 12.4 µM (inactive) | 3.15 µM (inactive) | 15.6 µM (inactive) | 19.2 µM (inactive) | 19.4 µM (inactive) | 13.6 µM (inactive) | 14.3 µM (inactive) | 12.2 µM (inactive) |
| CCCC1CCC(=C2C(=O)CCC2=O)O1 (centres undefined) | > 100 µM (inactive) | – | > 100 µM (inactive) | > 100 µM (inactive) | 0.364 µM (active) | > 100 µM (inactive) | > 100 µM (inactive) | > 100 µM (inactive) | > 100 µM (inactive) | > 100 µM (inactive) | > 100 µM (inactive) | > 100 µM (inactive) | > 100 µM (inactive) | > 100 µM (inactive) | > 100 µM (inactive) | – | 4.91 µM (inactive) | > 100 µM (inactive) | > 100 µM (inactive) | > 100 µM (inactive) |
| Oc1ccc2ccccc2c1Cc1c(O)ccc2ccccc12 | 21.1 µM (inactive) | 18.2 µM (inactive) | 17.3 µM (inactive) | 19.3 µM (inactive) | 17.8 µM (inactive) | 16.4 µM (inactive) | 4.04 µM (inactive) | 20.9 µM (inactive) | 26.5 µM (inactive) | 15.2 µM (inactive) | 11.2 µM (inactive) | 16 µM (inactive) | 14 µM (inactive) | 21.4 µM (inactive) | 21.6 µM (inactive) | 16.1 µM (inactive) | 20.5 µM (inactive) | 21 µM (inactive) | 17.4 µM (inactive) | – |
| O=CN/C=C/c1ccccc1O | > 100 µM (inactive) | > 100 µM (inactive) | > 100 µM (inactive) | > 100 µM (inactive) | > 86.7 µM (inactive) | > 100 µM (inactive) | > 100 µM (inactive) | > 100 µM (inactive) | > 100 µM (inactive) | – | > 100 µM (inactive) | > 100 µM (inactive) | > 79.8 µM (inactive) | > 100 µM (inactive) | > 100 µM (inactive) | > 100 µM (inactive) | > 100 µM (inactive) | > 100 µM (inactive) | > 100 µM (inactive) | > 100 µM (inactive) |
